Columns and labels:
[1] = test system: duckweed Lemnna paucicostata; assay: Growth of duckweed (increase in leaf area); assay type: in vivo; conditions: leaf area after 8-10 days, read-out: Growth inhibition (% of the control); for inhibition at 100 µM: use concentration 10^-4 M; for inhibition at 10 µM: use concentration 10^-5 M; for inhibition at 1 µM: use concentration 10^-6 M
Protocol: The effect of the herbicidal compounds according to the invention on the growth of duckweed can be seen from the following test results: p The duckweed Lemnna paucicostata was grown under sterile conditions in 250 ml glass vessels containing 100 ml of inorganic nutrient solution supplemented with 1% sucrose, as described by Grossmann et al., Pesticide Science 35 (1992), 283-289. At the beginning of the test, 150 μl of a solution of active ingredient in acetone (stock solution: 100-fold concentrated) were pipetted into Petri dishes (diameter 6 cm, height 1.5 cm; Greiner, Frickenhausen) containing 15 ml of nutrient solution (without added sucrose). Only the solvent component of the active ingredient solution was added to the nutrient solution for the control tests. Then, 4 Lemna plants were introduced into each dish, the dishes were covered with lids and incubated in a controlled-environment cabinet at 25° C. under permanent light conditions (Phillips TL white neon tubes, approx. 40 μmol m^-2 s^-1; λ=400-750 nm). After 8-10 days, the increase in leaf area was determined using an imaging apparatus (Imago, Compulog Computer Syst., Boblingen) as growth parameter, and this was used to calculate the % growth inhibition relative to the control.

[2] = target: T1, ferredoxin:NADP reductase (Spinacia oleracea, UniProt P00455); assay: Inhibition of diaphorase reaction of ferredoxin:NADP reductase; assay type: biochemical, spinach
T1 construct: from spinach leaves--obtainable from Sigma, Germany; purchased Sigma, Germany; host or cells: spinach leaves
T1 sequence (P00455 56-369): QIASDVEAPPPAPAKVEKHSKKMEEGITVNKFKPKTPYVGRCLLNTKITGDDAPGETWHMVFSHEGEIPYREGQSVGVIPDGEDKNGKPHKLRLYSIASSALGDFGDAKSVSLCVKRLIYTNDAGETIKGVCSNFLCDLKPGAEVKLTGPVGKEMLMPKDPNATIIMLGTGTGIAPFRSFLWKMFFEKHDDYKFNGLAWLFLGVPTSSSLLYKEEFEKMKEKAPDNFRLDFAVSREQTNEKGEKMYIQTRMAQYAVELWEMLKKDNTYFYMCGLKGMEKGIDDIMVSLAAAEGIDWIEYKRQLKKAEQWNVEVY
Protocol: (§1) Ferredoxin:NADP reductase not only catalyzes the physiologically relevant, reversible reaction of NADP with ferrecoxin (ferredoxin reductase activity), but also the NADPH-dependent reduction of potassium hexacyanoferrate(III) (diaphorase activity). Methods for measuring these reactions are described in the literature (Meth. Enzymol., Volumes 23 and 69).
The diaphorase activity can be determined by incubating, for example, chloroplasts or isolated ferredoxin:NADP reductase (Sigma) in 100 mM Tris/HCl buffer, pH 8.2+0.5 mM potassium hexacyanoferrate(III)+0.5 mM NADPH or an NADPH-regenerating system such as, for example, 0.5 mM NADP+2.5 mM glucose-6-phosphate+1 unit/ml glucose-6-phosphate dehydrogenase at 25° C. and monitoring the decrease in absorption at 420 nm. An incubation mixture without ferredoxin:NADP reductase may be used as blank value.
(§2) The action of a test substance can be tested by dissolving the substance in a suitable solvent such as, for example, dimethyl sulfoxide and pipetting an aliquot of the solution to the above-described incubation mixture. A corresponding aliquot of the pure solvent may be used as control. The action of the test substance can be determined by comparing the absorption changes of the respective incubation batches.

[3] = target: T1, ferredoxin:NADP reductase; assay: Inhibition of ferredoxin reductase reaction of ferredoxin:NADP reductase; assay type: biochemical, spinach; conditions: 1 mM
Protocol: as §1
The ferredoxin reductase activity can be determined by incubating, for example, chloroplast extracts or isolated ferredoxin:NADP reductase (Sigma) in 100 mM Tris/HCl buffer, pH 7.8+0.2 mM NADPH+0.65 mg/ml cytochrome C+0.1 mg/ml ferredoxin at 25° C. and measuring the change in the absorption at 550 nm, or the difference in absorption change at 550 nm and 540 nm. An incubation mixture without ferredoxin can be used as blank value.
as §2

SMILES	inhibition at 100 µM [1]	inhibition at 10 µM [1]	inhibition at 1 µM [1]	inhibition at 50 µM [2]	AU/min *10^-3 (diaphorase reaction, decrease in absorption at 420 nm) ([2]; 50 μM, mean +/- standard deviation of 6 experiments, control (DMSO) 31.3, blank without enzyme 9.4)	inhibition at 1000 µM [3]	E (550 -540) (ferredoxin reductase reaction) ([3]; mean +/- standard deviation of 6 experiments, control (DMSO) 0.692, blank without ferredoxin 0.027)
CCCCCCCCCCCCCCCCS(=O)(=O)c1ccc(S(=O)(=O)O)cc1C(=O)NN=c1sc2ccc(S(=O)(=O)O)cc2n1C [B.3]	96%	66%	54%	102%	9.0 +/- 1.4 AU/min *10^-3	90%	0.093 +/- 0.026
CCCCCCCCCCCCCCCCS(=O)(=O)c1ccc(S(=O)(=O)NN=c2sc3ccc(S(=O)(=O)O)cc3n2C)cc1C(=O)O [A.49]	77%	49%	19%	–	–	–	–
CCCCCCCCCCCCCCCCNS(=O)(=O)c1ccc(S(=O)(=O)NN=c2sc3ccc(S(=O)(=O)O)cc3n2C)cc1 [A.52]	89%	12%	–	–	–	–	–
CCCCCCCCCCCCCCCCNS(=O)(=O)c1ccc(S(=O)(=O)NN=c2sc3ccccc3n2C)cc1 [A.51]	29%	–	–	–	–	–	–
CCCCCCCCCCCCCCCCOc1ccc(C(=O)O)cc1S(=O)(=O)NN=c1sc2ccc(S(=O)(=O)O)cc2n1C [A.28]	60%	42%	26%	–	–	–	–
CCCCCCCCCCCCCCCCS(=O)(=O)Nc1cccc(S(=O)(=O)NN=c2sc3ccc(S(=O)(=O)C(F)F)cc3n2C)c1 [A.47]	18%	–	–	–	–	–	–
CCCCCCCCCCCCCCCCNS(=O)(=O)c1ccc(S(=O)(=O)NN=c2sc3ccc(S(=O)(=O)C(F)F)cc3n2C)cc1 [A.55]	28%	–	–	–	–	–	–
CCCCCCCCCCCCCCCCS(=O)(=O)N(C)c1cccc(S(=O)(=O)NN=c2sc3ccc(S(=O)(=O)O)cc3n2C)c1 [A.48]	42%	34%	28%	–	–	–	–
CCCCCCCCCCCCCCCCS(=O)(=O)c1ccc(S(=O)(=O)NN=c2sc3cc(S(=O)(=O)O)ccc3n2C)cc1NC(C)=O [A.46]	56%	33%	13%	–	–	–	–

From patent US6124242A, “Herbicidal compositions and processes based on ferrodoxin:NADP reductase inhibitors” (BASF Aktiengesellschaft, priority 1998, dated 2000)
